In assay [1] the test system is Karpas 422 human B-cell non-Hodgkin's lymphoma xenografts. Nature of the assay: Lymphoma Karpas422 xenograft model in rats. Particulars: day 34; p<0.05; Compound 3 20 mg/kg iv QW; Compound 1 150 mg/kg po QW. The format is in vivo. As to the method: Karpas 422 human B-cell non-Hodgkin's lymphoma (NHL) cell line was established from the pleural effusion of a patient with chemotherapy-resistant NHL. The cells were obtained from the DSMZ cell bank and cultured in RPMI-1640 medium (BioConcept Ltd. Amimed,) supplemented with 10% FCS (BioConcept Ltd. Amimed), 2 mM L-glutamine (BioConcept Ltd. Amimed), 1 mM sodium pyruvate (BioConcept Ltd. Amimed) and 10 mM HEPES (Gibco) at 37° C. in an atmosphere of 5% CO2 in air. Cells were maintained between 0.5 and 1.5×10^6 cells/mL. […]
Tumour growth was monitored regularly post cell inoculation and animals were randomised into treatment groups (n=5) when tumour volume reached appropriate volume. During the treatment period tumour volume was measured about twice a week using calipers. Tumour size, in mm^3, was calculated from: (L×W2×π/6). […]
Tumour data were analyzed statistically using GraphPad Prism 7.00 (GraphPad Software). If the variances in the data were normally distributed, the data were analyzed using one-way ANOVA with post hoc Dunnett's test for comparison of treatment versus control group. […]
As a measure of efficacy the % T/C value is calculated at the end of the experiment according to: […]
Tumour regression was calculated according to: […]

For assay [2], the system named is Acute Myeloid Leukemia (AML) cell lines. Nature of the assay: CellTiterGlo viability, panel of AML cell lines. Particulars: all 5 AML cell lines of combination (c); single agent; read-out: IC50s. The format is cell-based. The procedure:
In addition, all media contained penicillin (100 IU/ml), streptomycin (100 μg/ml) and L-glutamine (2 mM).
Cell lines were cultured at 37° C. in a humidified atmosphere containing 5% CO2 and expanded in T-150 flasks. In all cases cells were thawed from frozen stocks, expanded through ≥1 passage using appropriate dilutions, counted and assessed for viability using a CASY cell counter prior to plating 150 ul/well at the densities indicated in Table 1 into 96-well plates. All cell lines were determined to be free of mycoplasma contamination in-house.
Stock solutions of compounds were prepared at a concentration of 5 mM in DMSO and stored at −20° C.
In order to analyse the activity of the compounds as single agents, cells were seeded and treated with nine 2-fold serial dilutions of each compound dispensed individually directly into the cell assay plates. Effects of the compounds on cell viability were assessed after 3 days of incubation at 37° C./5% CO2 by quantification of cellular ATP levels using CellTiterGlo at 75 μL reagent/well. All the experiments were performed in triplicates. Luminescence was quantified on a multipurpose plate reader. Single agent IC50s were calculated using standard four-parametric curve fitting. […]
In order to analyse the activity of the compounds in combination, cells were seeded and treated with seven or eight 3.16-fold serial dilutions of each compound dispensed, either individually or in all possible permutations in a checkerboard fashion, directly into the cell assay plates as indicated in FIG. 9. Effects of the single agents as well as their checkerboard combinations on cell viability were assessed after 3 days of incubation at 37° C./5% CO2 by quantification of cellular ATP levels using CellTiterGlo at 75 μL reagent/well. […] Luminescence was quantified on a multipurpose plate reader.
Potential synergistic interactions between compound combinations were assessed using the Excess Inhibition 2D matrix according to the Loewe additivity model and are reported as Synergy Score (Lehar et al, Nat Biotechnol. 2009 July; 27(7): 659-666). […]
Background: In ATP-based viability assays light output follows the ATP content of the culture.

Turning to `COc1ccccc1-c1nccc(COc2ccccc2C[C@@H](Oc2ncnc3sc(-c4ccc(F)cc4)c(-c4ccc(OCCN5CCN(C)CC5)c(Cl)c4C)c23)C(=O)O)n1` [Compound 3, (2R)-2-{[(5Sa)-5-{3-chloro-2-methyl-4-[2-(4-methylpiperazin-1-yl)ethoxy]phenyl}-6-(4-fluorophenyl)thieno[2,3-d]pyrimidin-4-yl]oxy}-3-(2-{[2-(2-methoxyphenyl)pyrimidin-4-yl]methoxy}phenyl)propanoic acid], the “tumour response versus vehicle group” value in assay [1] is “significantly different from the vehicle group”. Moreover, in assay [2], the IC50 is under 200 nM.
